Where a name gives a salt, the structure may show the parent alone. Read-outs that look alike come from different tables or passages of the source.
Tests used:
[1] = Stability studies of sitagliptin salts (10 months storage; HPLC, XRD, visual inspection); assay type: physicochemical; settings: for Purity (HPLC) 10 months later / Aspect/Colour 10 months later / XRD analysis 10 months later: stored 10 months at room temperature, normal pressure, ambient atmosphere; for Aspect/Colour 10 months later: visual inspection; for Stability in terms of polymorphic form: after ten months of storage; for XRD analysis 10 months later: initial XRD Form I
Method: The XRD diffractograms were obtained using a RX SIEMENS D5000 diffractometer with a vertical goniometer, a copper anodic tube, and radiation CuKα, λ=1.54056.
Mobile phase A was a mixture of methanol and 5 mM dibasic sodium phosphate buffer, pH=7.0 (70:30, v/v). The buffer was prepared by dissolving 0.217 g of dibasic sodium phosphate in 300 mL of water and adjusting the pH of the solution to 7.0±0.1 with phosphoric acid, and filtered through a 0.22 μm nylon membrane under vacuum. Mobile phase B was methanol.
The following gradient was used: […]
The samples were analyzed after 10 months by HPLC, XRD, and visual inspection.

[2] = room temperature
[3] = listed as sitagliptin ethanedisulfonate Form I
[4] = listed as sitagliptin galactarate Form I

| Compound | Purity (HPLC) 10 months later [1] [%] | Aspect/Colour 10 months later [1] | XRD analysis 10 months later [1] | other results |
| --- | --- | --- | --- | --- |
| NC(CC(=O)N1CCn2c(nnc2C(F)(F)F)C1)Cc1cc(F)c(F)cc1F.O=C(O)C(O)C(O)C(O)C(O)CO [D-Gluconate, sitagliptin D-gluconate] | 96.29 | beige |  |  |
| N[C@@H](CC(=O)N1CCn2c(nnc2C(F)(F)F)C1)Cc1cc(F)c(F)cc1F.O=S(=O)(O)CCS(=O)(=O)O [Ethane-disulfonate, sitagliptin ethanedisulfonate] | 99.83 | off-white | Form I | Stability in terms of polymorphic form [1]: highly stable; Purity (HPLC) 10 months later [1, 3]: higher than 99.8%; Descriptive term (solubility in water) [2]: Freely soluble; Descriptive term (solubility in water) [2, 3]: freely soluble |
| N[C@@H](CC(=O)N1CCn2c(nnc2C(F)(F)F)C1)Cc1cc(F)c(F)cc1F.O=C(O)[C@@H](O)[C@H](O)[C@H](O)[C@@H](O)C(=O)O [Galactarate, sitagliptin galactarate] | 99.15 | off-white | Form I | Stability in terms of polymorphic form [1]: highly stable; Purity (HPLC) 10 months later [1, 4]: higher than 99.1%; Descriptive term (solubility in water) [2]: Sparingly soluble; Descriptive term (solubility in water) [2, 4]: sparingly soluble |
| N[C@@H](CC(=O)N1CCn2c(nnc2C(F)(F)F)C1)Cc1cc(F)c(F)cc1F [Hydrobromide, sitagliptin hydrobromide] | 98.92 | off-white | Form I |  |
| N[C@@H](CC(=O)N1CCn2c(nnc2C(F)(F)F)C1)Cc1cc(F)c(F)cc1F.N[C@@H](CC(=O)O)C(=O)O [L-aspartate, sitagliptin L-aspartate] | 97.14 | white |  |  |
| N#CS.N[C@@H](CC(=O)N1CCn2c(nnc2C(F)(F)F)C1)Cc1cc(F)c(F)cc1F [Thiocyanate, sitagliptin thiocyanate] | 99.22 | light pink | Form I | Stability in terms of polymorphic form [1]: highly stable; Purity (HPLC) 10 months later ([1]; listed as sitagliptin thiocyanate Form I): higher than 99.2% |
| sitagliptin (S)-pyroglutamate | 98.64 | off-white |  |  |
| sitagliptin acetate | 98.90 | off-white |  |  |
| sitagliptin hemi-L-malate | 98.91 |  |  |  |
| sitagliptin oxalate | 95.95 | white | Form I |  |
| sitagliptin succinate | 98.88 | off-white |  |  |

Source: patent US8389724B2, “Crystalline salt forms of a 5,6,7,8-tetrahydro-1,2,4-triazolo[4,3-a]pyrazine derivative” (Corporacion Medichem, S.L., priority 2008, dated 2013)
